In the assay the target is T1, PIK3CA (Homo sapiens, UniProt P42336).
T1 construct: endogenous in cells; host or cells: Jurkat cell lysate
T1 sequence (P42336 whole entry): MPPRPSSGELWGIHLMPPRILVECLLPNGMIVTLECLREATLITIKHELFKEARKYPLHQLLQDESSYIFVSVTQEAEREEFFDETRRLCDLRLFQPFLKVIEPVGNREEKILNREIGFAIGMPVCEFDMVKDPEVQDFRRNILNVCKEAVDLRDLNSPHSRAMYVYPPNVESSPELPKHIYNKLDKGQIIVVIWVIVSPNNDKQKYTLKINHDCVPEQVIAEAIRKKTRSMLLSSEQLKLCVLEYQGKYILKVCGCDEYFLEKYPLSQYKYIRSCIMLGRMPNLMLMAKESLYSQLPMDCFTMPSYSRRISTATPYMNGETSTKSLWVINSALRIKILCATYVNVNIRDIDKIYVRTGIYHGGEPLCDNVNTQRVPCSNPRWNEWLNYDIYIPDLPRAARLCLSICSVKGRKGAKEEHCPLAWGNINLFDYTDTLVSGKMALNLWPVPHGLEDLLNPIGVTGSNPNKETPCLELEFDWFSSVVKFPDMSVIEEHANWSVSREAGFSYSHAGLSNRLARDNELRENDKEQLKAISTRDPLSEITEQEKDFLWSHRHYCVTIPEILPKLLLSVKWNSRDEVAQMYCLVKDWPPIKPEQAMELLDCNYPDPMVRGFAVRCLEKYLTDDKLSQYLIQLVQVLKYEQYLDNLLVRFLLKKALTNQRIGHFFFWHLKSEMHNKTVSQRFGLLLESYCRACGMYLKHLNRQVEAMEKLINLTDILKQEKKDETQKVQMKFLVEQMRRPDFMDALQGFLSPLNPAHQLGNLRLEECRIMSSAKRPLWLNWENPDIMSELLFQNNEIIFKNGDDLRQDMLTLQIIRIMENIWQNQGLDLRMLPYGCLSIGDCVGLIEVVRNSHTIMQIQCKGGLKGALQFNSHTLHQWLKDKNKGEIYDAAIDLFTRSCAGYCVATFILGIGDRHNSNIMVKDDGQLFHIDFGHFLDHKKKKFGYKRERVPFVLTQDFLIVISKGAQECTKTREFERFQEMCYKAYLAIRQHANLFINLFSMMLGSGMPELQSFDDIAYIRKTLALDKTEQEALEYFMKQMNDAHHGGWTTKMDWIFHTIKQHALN
T1 sequence (P27986 whole entry partner): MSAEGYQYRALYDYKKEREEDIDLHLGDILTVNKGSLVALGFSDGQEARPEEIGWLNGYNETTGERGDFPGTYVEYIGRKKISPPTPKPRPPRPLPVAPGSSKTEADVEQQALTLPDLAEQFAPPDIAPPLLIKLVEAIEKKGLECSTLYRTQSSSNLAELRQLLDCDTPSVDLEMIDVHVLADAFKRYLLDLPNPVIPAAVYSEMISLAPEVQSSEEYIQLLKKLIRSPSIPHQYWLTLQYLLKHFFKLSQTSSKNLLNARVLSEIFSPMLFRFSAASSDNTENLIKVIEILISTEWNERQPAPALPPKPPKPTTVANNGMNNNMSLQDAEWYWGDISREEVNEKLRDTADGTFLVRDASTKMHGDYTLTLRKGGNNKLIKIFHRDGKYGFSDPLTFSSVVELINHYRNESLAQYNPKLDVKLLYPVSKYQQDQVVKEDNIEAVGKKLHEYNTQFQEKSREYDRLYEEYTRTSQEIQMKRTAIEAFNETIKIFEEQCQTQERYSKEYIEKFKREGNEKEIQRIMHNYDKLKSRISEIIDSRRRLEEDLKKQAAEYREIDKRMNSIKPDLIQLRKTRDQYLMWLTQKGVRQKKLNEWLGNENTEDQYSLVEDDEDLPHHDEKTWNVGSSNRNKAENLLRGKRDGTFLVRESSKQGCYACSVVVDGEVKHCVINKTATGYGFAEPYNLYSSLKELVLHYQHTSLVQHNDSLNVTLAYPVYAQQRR
Description: In vitro ELISA target engagement assay for PIK3CA in Jurkat cellular lysate (competition with PIK3CA Biotin Probe). To be noted: 1 hour at rt, then 500 nM PIK3CA Biotin Probe, read-out: Elisa Target Engagement Assay (TE50). The class given is binding. The procedure, abridged: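 Jurkat lysate from sonicated frozen cells was preincubated 1 h at rt with serially diluted compound up to 200 μM, then labelled 1 h at rt with PIK3CA biotin probe at 500 nM final. Probe-bound PIK3CA was captured on antibody-coated plates and detected with Neutravidin-HRP luminescence; TE50 derived from the dose response.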
Background: ELISA stands for enzyme-linked immunosorbent assay.
As to `CCOC(=O)N1C[C@H](C(=O)N2CCC(F)(C(=O)N[C@H](C)/C=C\S(C)(=O)=O)CC2)[C@H](c2ccccc2Cl)C1` [Compound 160, ethyl (3R,4R)-3-(2-chlorophenyl)-4-(4-fluoro-4-(((R,Z)-4-(methylsulfonyl)but-3-en-2-yl)carbamoyl)piperidine-1-carbonyl)pyrrolidine-1-carboxylate], the IC50 is 670 nM. Consider `COCCc1cccc(-c2cc(Cl)ccc2S(=O)(=O)N2CCC(F)(C(=O)N[C@@H](C)/C=C\S(C)(=O)=O)CC2)c1` [Compound 125, (S,Z)-1-((5-chloro-3′-(2-methoxyethyl)-[1,1′-biphenyl]-2-yl)sulfonyl)-4-fluoro-N-(4-(methylsulfonyl)but-3-en-2-yl)piperidine-4-carboxamide], for which the IC50 was 610 nM. Next, `C[C@H](/C=C\S(C)(=O)=O)NC(=O)C1(F)CCN(C(=O)[C@H]2CN(CC(F)(F)c3ccccc3)C[C@H]2c2ccccc2Cl)CC1` [Compound 181, 1-((3R,4R)-4-(2-chlorophenyl)-1-(2,2-difluoro-2-phenylethyl)pyrrolidine-3-carbonyl)-4-fluoro-N-((R,Z)-4-(methylsulfonyl)but-3-en-2-yl)piperidine-4-carboxamide]: 700 nM; `C[C@H](/C=C\S(C)(=O)=O)NC(=O)C1(F)CCN(S(=O)(=O)c2ccc(Br)cc2-c2ccccc2C(F)(F)F)CC1` [Compound 54, (R,Z)-1-((5-bromo-2′-(trifluoromethyl)-[1,1′-biphenyl]-2-yl)sulfonyl)-4-fluoro-N-(4-(methylsulfonyl)but-3-en-2-yl)piperidine-4-carboxamide]: 860 nM. For `O=C(/C=C\CNC(=O)C1(F)CCN(S(=O)(=O)c2ccc(Br)cc2-c2ccccc2Cl)CC1)N1CCC1` [Compound 286, (Z)-N-(4-(azetidin-1-yl)-4-oxobut-2-en-1-yl)-1-((5-bromo-2′-chloro-[1,1′-biphenyl]-2-yl)sulfonyl)-4-fluoropiperidine-4-carboxamide] the value was 640 nM; for `CC(C)OC(=O)N1C[C@H](c2ccccc2Cl)[C@H](C(=O)N2CCC(F)(C(=O)N[C@H](C)/C=C\S(C)(=O)=O)CC2)C1` [Compound 199, isopropyl (3S,4S)-3-(2-chlorophenyl)-4-(4-fluoro-4-(((R,Z)-4-(methylsulfonyl)but-3-en-2-yl)carbamoyl)piperidine-1-carbonyl) pyrrolidine-1-carboxylate], 900 nM; for `C[C@H](/C=C\S(C)(=O)=O)NC(=O)C1(F)CCN(C(=O)[C@H]2CCN(CC(F)(F)F)C[C@@H]2c2ccccc2Cl)CC1` (single isomer, unassigned) [Compound 307, 1-((3*S,4*S)-3-(2-chlorophenyl)-1-(2,2,2-trifluoroethyl)piperidine-4-carbonyl)-4-fluoro-N-((R,Z)-4-(methylsulfonyl)but-3-en-2-yl)piperidine-4-carboxamide], 845 nM. For the compound `C[C@@H](/C=C/S(=O)(=O)C1CNC1)NC(=O)C1(F)CCN(S(=O)(=O)c2ccc(Br)cc2-c2ccccc2Cl)CC1` [Compound 75, (S,E)-N-(4-(azetidin-3-ylsulfonyl)but-3-en-2-yl)-1-((5-bromo-2′-chloro-[1,1′-biphenyl]-2-yl)sulfonyl)-4-fluoropiperidine-4-carboxamide], the IC50 is 140 nM. Next, `C[C@@H]1C[C@](F)(C(=O)NC/C=C\C(=O)N2CC(F)(F)C2)CCN1S(=O)(=O)c1cnc(C(F)(F)F)cc1-c1ccccc1Cl` [Compound 289, (2R,4S)-1-((4-(2-chlorophenyl)-6-(trifluoromethyl)pyridin-3-yl)sulfonyl)-N-((Z)-4-(3,3-difluoroazetidin-1-yl)-4-oxobut-2-en-1-yl)-4-fluoro-2-methylpiperidine-4-carboxamide]: 460 nM; `COC1(C(=O)N[C@H](C)/C=C\S(C)(=O)=O)CCN(S(=O)(=O)c2ccc(Br)cc2-c2ccccc2Cl)CC1` [Compound 133, (R,Z)-1-((5-bromo-2′-chloro-[1,1′-biphenyl]-2-yl)sulfonyl)-4-methoxy-N-(4-(methylsulfonyl)but-3-en-2-yl)piperidine-4-carboxamide]: 220 nM; `C=C(C#N)CNC(=O)C1(F)CCN(S(=O)(=O)c2ccc(Br)cc2-c2ccccc2Cl)CC1` [Compound 72, 1-((5-bromo-2′-chloro-[1,1′-biphenyl]-2-yl)sulfonyl)-N-(2-cyanoallyl)-4-fluoropiperidine-4-carboxamide]: 670 nM. With `O=C(NC1C=CS(=O)(=O)C1)C1(F)CCN(S(=O)(=O)c2ccc(Br)cc2-c2ccccc2Cl)CC1` (racemic) [Compound 65, rac-1-((5-bromo-2′-chloro-[1,1′-biphenyl]-2-yl)sulfonyl)-N-(1,1-dioxido-2,3-dihydrothiophen-3-yl)-4-fluoropiperidine-4-carboxamide], the IC50 was found to be 54 nM.

As to `C[C@H](/C=C\[S@](C)(=N)=O)NC(=O)C1(F)CCN(S(=O)(=O)c2ccc(Br)cc2-c2ccccc2Cl)CC1` (single isomer, unassigned) [Compound 74, 1-((5-bromo-2′-chloro-[1,1′-biphenyl]-2-yl)sulfonyl)-4-fluoro-N-((R,Z)-4-((*R)-S-methylsulfonimidoyl)but-3-en-2-yl)piperidine-4-carboxamide], the IC50 worked out at 410 nM. For `C[C@H](/C=C\S(C)(=O)=O)NC(=O)C1(F)CCN(S(=O)(=O)c2ccc(Br)cc2-c2cccc(F)c2Cl)CC1` [Compound 52, (R,Z)-1-((5-bromo-2′-chloro-3′-fluoro-[1,1′-biphenyl]-2-yl)sulfonyl)-4-fluoro-N-(4-(methylsulfonyl)but-3-en-2-yl)piperidine-4-carboxamide] the value was 140 nM; for `CC(O)c1ccc(S(=O)(=O)N2CCC(F)(C(=O)N[C@H](C)/C=C\S(C)(=O)=O)CC2)c(-c2ccccc2Cl)c1` (stereo partly drawn) [Compound 129, 1-((2′-chloro-5-(1-hydroxyethyl)-[1,1′-biphenyl]-2-yl)sulfonyl)-4-fluoro-N-((R,Z)-4-(methylsulfonyl)but-3-en-2-yl)piperidine-4-carboxamide], 440 nM.

Take `CC[C@@H](/C=C\S(C)(=O)=O)NC(=O)C1(F)CCN(S(=O)(=O)c2ccc(Br)cc2-c2ccccc2Cl)CC1` [Compound 82, (S,Z)-1-((5-bromo-2′-chloro-[1,1′-biphenyl]-2-yl)sulfonyl)-4-fluoro-N-(1-(methylsulfonyl)pent-1-en-3-yl)piperidine-4-carboxamide]: the IC50 turned out to be 198 nM. Regarding `C[C@@H](/C=C\S(C)(=O)=O)NC(=O)C1(F)CCN(S(=O)(=O)c2ccc(C(F)(F)F)cc2-c2ccccc2Cl)CC1` [Compound 18, (S,Z)-1-((2′-chloro-5-(trifluoromethyl)-[1,1′-biphenyl]-2-yl)sulfonyl)-4-fluoro-N-(4-(methylsulfonyl)but-3-en-2-yl)piperidine-4-carboxamide], the IC50 is 38 nM. Take `C[C@H](/C=C\S(C)(=O)=O)NC(=O)C1(F)CCN(C(=O)[C@@H]2CCC3(CCC3)C[C@H]2c2ccccc2Cl)CC1` (racemic) [Compound 257, 1-((6*R,7*R)-6-(2-chlorophenyl)spiro[3.5]nonane-7-carbonyl)-4-fluoro-N-((R,Z)-4-(methylsulfonyl)but-3-en-2-yl)piperidine-4-carboxamide]: the IC50 amounted to 420 nM. Next, `COc1cccc(-c2ccccc2S(=O)(=O)N2CCC(F)(C(=O)N[C@@H](C)/C=C\S(C)(=O)=O)CC2)c1` [Compound 19, (S,Z)-4-fluoro-1-((3′-methoxy-[1,1′-biphenyl]-2-yl)sulfonyl)-N-(4-(methylsulfonyl)but-3-en-2-yl)piperidine-4-carboxamide]: 744 nM.

As to `COc1ccc(S(=O)(=O)N2CCC(F)(C(=O)N[C@H](C)/C=C/C(=O)N3CC(F)(F)C3)CC2)c(-c2ccccc2Cl)c1` [Compound 137, (R,E)-1-((2′-chloro-5-methoxy-[1,1′-biphenyl]-2-yl)sulfonyl)-N-(5-(3,3-difluoroazetidin-1-yl)-5-oxopent-3-en-2-yl)-4-fluoropiperidine-4-carboxamide], the IC50 was 380 nM. For the compound `C[C@H](/C=C\S(C)(=O)=O)NC(=O)C1(F)CCN(S(=O)(=O)c2ccc(CO)cc2-c2ccccc2Cl)CC1` [Compound 130, (R,Z)-1-((2′-chloro-5-(hydroxymethyl)-[1,1′-biphenyl]-2-yl)sulfonyl)-4-fluoro-N-(4-(methylsulfonyl)but-3-en-2-yl)piperidine-4-carboxamide], the IC50 turned out to be 470 nM. For `CC[C@H](/C=C/S(=O)(=O)C1CNC1)NC(=O)C1(F)CCN(S(=O)(=O)c2ccc(Br)cc2-c2ccccc2Cl)CC1` [Compound 77, (R,E)-N-(1-(azetidin-3-ylsulfonyl)pent-1-en-3-yl)-1-((5-bromo-2′-chloro-[1,1′-biphenyl]-2-yl)sulfonyl)-4-fluoropiperidine-4-carboxamide] the value was 128 nM; for `C[C@H](/C=C\S(C)(=O)=O)NC(=O)C1(F)CCN(S(=O)(=O)c2cnc(C(F)(F)F)cc2-c2ccc(F)cc2Cl)CC1` [Compound 211, (R,Z)-1-((4-(2-chloro-4-fluorophenyl)-6-(trifluoromethyl)pyridin-3-yl)sulfonyl)-4-fluoro-N-(4-(methylsulfonyl)but-3-en-2-yl)piperidine-4-carboxamide], 1000 nM.
